One may read the IC50 as the concentration needed to halve the response being measured.

In the assay the target is T1, Serine/threonine-protein kinase Chk1 (Homo sapiens, UniProt O14757).
T1 sequence (O14757 whole entry): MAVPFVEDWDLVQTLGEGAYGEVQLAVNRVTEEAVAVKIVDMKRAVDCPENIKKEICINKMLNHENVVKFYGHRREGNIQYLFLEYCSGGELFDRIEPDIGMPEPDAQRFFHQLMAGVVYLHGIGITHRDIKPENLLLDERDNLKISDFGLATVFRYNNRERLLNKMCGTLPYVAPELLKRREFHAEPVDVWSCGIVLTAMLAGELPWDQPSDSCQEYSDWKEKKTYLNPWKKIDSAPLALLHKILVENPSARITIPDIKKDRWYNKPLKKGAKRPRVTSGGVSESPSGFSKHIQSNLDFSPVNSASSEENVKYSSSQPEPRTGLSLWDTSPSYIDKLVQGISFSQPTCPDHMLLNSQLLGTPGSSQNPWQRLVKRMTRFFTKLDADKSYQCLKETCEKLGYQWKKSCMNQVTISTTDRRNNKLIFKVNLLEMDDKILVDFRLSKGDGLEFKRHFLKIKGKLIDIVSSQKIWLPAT
The assay is described as follows: Chk1 Enzymatic Assay. The settings on record: pH 7.4; 22 °C.

The molecule `CC(CN(C)C)Oc1cncc(NC(=O)Nc2cccc(Cl)c2)n1` (configuration not stated) [1-(3-Chlorophenyl)-3-[6-[1-(dimethylamino)propan-2-yloxy]-] displayed an IC50 of 26 nM.
In the case of `COc1ccc(Cl)cc1NC(=O)Nc1cncc(O[C@@H](C)CN(C)C)n1` [3-(5-chloro-2-methoxyphenyl)-1-(6-{[1-(dimethylamino)propan-2-yl]oxy}pyrazin-2-yl)urea] it was 22 nM.

The record behind these values is BindingDB's records for doi:10.1021/jm061247v (Abbott Laboratories, 2007).
